In patent US20210386777A1, “GAS MIXTURES CONTAINING LOW CONC[…] XENON AND ARGON PROVIDE NEURO[…] INHIBITING THE CATALYTIC ACTIVITY OF TH[…]” ([…], priority 2017, published 2021):

Legend:
[1] = tested on: brain slices exposed to OGD; assay: Lactate dehydrogenase (LDH) release induced by oxygen-glucose deprivation (OGD) in brain slices; type: cell-based, rat
Protocol: Rats were killed by decapitation under halothane anesthesia. The brains were removed and placed in ice-cold freshly prepared artificial cerebrospinal fluid (aCSF). Coronal brain slices (400 μm thickness) including the striatum (anteriority: from +1.2 to +2 mm from bregma) were cut using a tissue chopper (Mickie Laboratory Engineering Co., Gomshall, Surrey, UK).
The effects of gas mixtures containing xenon and argon on the release of lactate dehydrogenase (LDH) induced by OGD were assessed as described previously. Before being used, brain slices were transferred into individual vials with 1.3 ml of freshly prepared oxygenated aCSF containing 120 mM NaCl, 2 mM KCl, 2 mM CaCl2, 26 mM NaHCO3, 1.19 mM MgSO4, 1.18 mM KH2PO4, 11 mM d-glucose, and 30 mM HEPES and allowed to recover at room temperature for 45 min. Then, brain slices were placed at 36±0.5° C. into individual vials containing 1.3 ml of freshly prepared aCSF, saturated, and continuously bubbled with 100% oxygen (25 ml/min per vial). After a 30-min period, the incubation aCSF solution was renewed with oxygenated aCSF maintained at 36° C., and the slices were then incubated for 1 h to allow recording of basal levels of LDH. Whereas control slices were incubated for an additional 20-min period in the same conditions, those corresponding to the ischemic group were incubated in a glucose-free solution, saturated, and continuously bubbled with 100% nitrogen (OGD slices). After this 20-min period of OGD, to mimic reperfusion and treatment, the medium was replaced in all groups with freshly prepared aCSF solution, saturated and continuously bubbled with either medical air or gas mixtures containing xenon and argon in volume proportions as described below (see gas pharmacology section; n=20-36).
Xenon, argon, nitrogen, and oxygen were purchased from Air Liquide Sante (Paris, France). […]

[2] = tested on: rats injected with intracerebral NMDA; assay: NMDA-induced neuronal death in vivo (brain damage after intracerebral injection of NMDA); parameters: species or system rat
Protocol: The effects of gas mixtures containing xenon and argon on the […] were assessed as described previously. On the day of surgery, rats were anesthetized with 1.5% halothane in oxygen alone in an anesthesia box and mounted on a stereotactic apparatus with the incisor bar set at 3.9 mm below the horizontal zero. A burr hole was drilled and a micropipette (less than […] at the tip) was lowered into the right striatum (anterior, 0.6 mm; lateral, 3.0 mm; ventral, 5.8 mm, from bregma) to allow injection of 70 nmol of NMDA in 1 μl of phosphate buffered solution (pH 7.4) over a 2-min period. After an additional 5-min period, the micropipette was removed, and the wounds were then sutured. During surgery, body temperature was kept at 37 ±0.5° C. with a feedback-controlled thermostatic heating pad (Harvard Apparatus Limited, Edenbridge, UK). The animals woke up in their home cage after about 10 min, where they were given free access to food and water. Sixty minutes after NMDA administration, rats were treated with medical air or gas mixtures containing xenon and argon (see gas pharmacological section). The number of rats per group was n=7-11.
(§1) Xenon, argon, nitrogen, and oxygen were purchased from Air Liquide Sante (Paris, France). Medical air composed of 75 vol % nitrogen and 25 vol % oxygen, and xenon and argon mixtures containing 37.5 vol % xenon and 37.5 vol % argon (Xe—Ar-37.5), 25 vol % xenon and 25 vol % argon (Xe—Ar-25) or 15 vol % xenon and 15 vol % argon (Xe—Ar-15)—with 25 vol % oxygen and the remainder being nitrogen when needed—were obtained using computer-driven gas mass flowmeters, and an oxygen analyzer to check that the gas mixtures used were not hypoxic.

[3] = target: T1, recombinant form of human tPA (Homo sapiens, UniProt P00750); assay: In vitro tPA catalytic activity assay (initial rate method, chromogenic substrate); type: biochemical; settings: for catalytic efficiency of tPA: single gas alone at 25 vol %
T1 construct: purchased Boehringer Ingelheim Actilyse
Protocol: […] The recombinant form of human tPA (Actilyse®; Boehringer Ingelheim, Ingelheim am Rhein, Germany) and its specific chromogenic substrate methylsulfonyl-D-phenyl-glycil-arginine-7-amino-4-methylcoumarin acetate (Spectrozyme® XF, product 444; American Diagnostica, Stamford, CT) were diluted separately in 1 ml distilled water in 1.5-ml sterile tubes. […] The catalytic efficiency of tPA was assessed by the initial rate method by incubating 50 μl tPA with 50 μl substrate in a spectrofluorometer microplate reader set at 37° C.
as §1

[4] = target: tPA and rtPA (Homo sapiens, UniProt P00750); settings: cited from earlier work
[5] = target: elastase (Sus scrofa, UniProt P00772); settings: cited from earlier work; for binding to the active site of elastase: serine protease used as a model of tPA
[6] = tested on: rat model of thromboembolic stroke; settings: intraischemic administration; cited from earlier work
[7] = cited from earlier work

T1 sequence (P00750 36-562): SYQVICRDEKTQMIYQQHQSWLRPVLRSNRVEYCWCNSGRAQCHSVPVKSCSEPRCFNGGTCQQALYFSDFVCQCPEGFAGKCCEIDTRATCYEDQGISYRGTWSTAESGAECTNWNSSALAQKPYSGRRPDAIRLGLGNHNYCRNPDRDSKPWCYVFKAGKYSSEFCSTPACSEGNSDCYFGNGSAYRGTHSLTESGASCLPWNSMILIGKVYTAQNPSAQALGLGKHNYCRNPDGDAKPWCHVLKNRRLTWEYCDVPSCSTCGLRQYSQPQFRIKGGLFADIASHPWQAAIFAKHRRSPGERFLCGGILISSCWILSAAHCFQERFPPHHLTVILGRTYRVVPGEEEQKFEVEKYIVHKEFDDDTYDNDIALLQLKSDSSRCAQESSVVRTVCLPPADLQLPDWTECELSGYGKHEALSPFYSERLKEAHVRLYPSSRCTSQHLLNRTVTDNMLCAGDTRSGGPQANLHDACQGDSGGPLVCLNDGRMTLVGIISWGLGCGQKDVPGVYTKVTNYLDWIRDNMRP
Chain of elastase (P00772 27-266): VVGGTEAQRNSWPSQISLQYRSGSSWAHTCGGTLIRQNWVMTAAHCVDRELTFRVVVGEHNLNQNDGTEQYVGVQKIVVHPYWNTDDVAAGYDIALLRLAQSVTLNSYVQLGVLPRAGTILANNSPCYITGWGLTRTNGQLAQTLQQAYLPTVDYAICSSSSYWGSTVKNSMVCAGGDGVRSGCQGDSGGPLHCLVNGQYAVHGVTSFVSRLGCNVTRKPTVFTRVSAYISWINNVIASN
Chain of tPA and rtPA (P00750 36-562): as the sequence (P00750 36-562) above

For `[Ar]` [argon], the “OGD-induced LDH release” value ([1]; single gas alone at 15 vol %) was “also had no effect by itself on OGD-induced LDH release”, the “OGD-induced LDH release” value ([1]; single gas alone at 25 vol %) was “had no effect by itself on OGD-induced LDH release” and the NMDA-induced brain damage ([2]; single gas alone at 15 vol %) was “also had no effect by itself on NMDA-induced brain damage”. For the same molecule, the NMDA-induced brain damage ([2]; single gas alone at 25 vol %) was “had no effect by itself on NMDA-induced brain damage”, the tPA-induced catalytic activity ([3]; argon alone, concentration not given) was “has no effect” and the “catalytic efficiency of tPA” value [3] was “decreased it significantly”. For the same molecule, the “inhibiting action on the thrombolytic properties of tPA and rtPA” value ([4]; neuroprotective concentrations of 50 vol % and above) was “shows no inhibiting action”, the “affinity for elastase relative to xenon” value [5] was “lower affinity than xenon” and the “binding to the active site of elastase” value [5] was “bind to the active site of elastase”.
In the case of `[Xe]` [xenon], the “OGD-induced LDH release” value ([1]; single gas alone at 15 vol %) was “had no effect by itself on OGD-induced LDH release”, the NMDA-induced brain damage ([2]; single gas alone at 15 vol %) was “had no effect by itself on NMDA-induced brain damage” and the “catalytic efficiency of tPA” value [3] was “had no effect on the catalytic efficiency of tPA”. The “inhibition of tPA and rtPA” value ([4]; xenon alone) was “potent inhibitor of tPA and rtPA”, the “tPA-induced thrombolysis and subsequent reduction of ischemic brain damage” value [6] was “dose-dependently inhibits” and the neuroprotection ([7]; subanesthetic concentrations of 37.5 vol % or 50 vol %) was “provided neuroprotection”. For the same molecule, the “possible therapeutic window of neuroprotection” value ([7]; xenon alone) was “about 8 h” and the “binding to the active site of elastase” value [5] was “bind to the active site of elastase”.
